Key:
HIV-1 TAR RNA = test: RNA cleavage reaction, HIV-1 TAR substrate; assay type: biochemical; conditions: 40 μM, not bound to RNA-binding protein (control)
Protocol: The above described polypeptides were tested for their ability to cleave RNA substrates which contained cognate binding sites. Typically, RNA target molecules containing the binding sites were 5'-end-labeled, purified on denaturing polyacrylamide gels, and annealed for use as substrates for cleavage (Example 2). A typical cleavage reaction contained 10^3 cpm of end-labeled RNA and 40-100 ng of polypeptide. Example 4A describes RNA cleavage reactions utilizing the TAT24C-phen polypeptide. The target RNA was incubated with TAT24C-phen at 25° C. for 10 min before the cleavage was initiated by adding CuSO4 and mercaptopropionic acid. After incubating for a given period of time, the reaction was stopped by the addition of 2,9-dimethyl-1,10-phenanthroline. RNAs were then isolated and analyzed on denaturing 15% sequencing gels. […] This is an expected site of cleavage based on binding of the polypeptide at the three-nucleotide bulge. A possible secondary cleavage site may be due to flexibility of the phenothroline-containing protein of the polypeptide, allowing it to reach to stem on the other side of the binding site.
Cleavage reactions using the polypeptide-cleaving reagents of the present invention were typically performed as follows. […]
RNAs from all reactions were ethanol precipitated and analyzed on a denaturing (8.3 M urea) 15% polyacrylamide gel. […]

[1] = tested on: wild-type TAR (wt-TAR) site; conditions: RNA containing the TAR site; cited from earlier work
[2] = tested on: HIV-1 LTR-linked gene expression; conditions: TAT protein taken up by cells; cited from earlier work

For Cu(II)-1,10-phenanthroline, the “cleavage pattern on HIV-1 TAR by free Cu(II)-phenanthroline” value (HIV-1 TAR RNA) was “cleaves everywhere, but the unpaired bases at the loop (especially G32) and the bulge are most reactive”.

In the case of “synthetic 14-residue polypeptide: synthetic polypeptide spanning the basic region, amino acid residues 48-61 of the TAT protein (GRKKRRQRRRAHQN; UniProt P04608 48-61, looked up, fragment)”, the “binding to TAR-RNA (in words)” value [1] is given as “bound TAR-RNA as well”.

B1: TAT protein: HIV-1 encoded 86 amino acid transactivator protein (protein)
chain: MEPVDPRLEPWKHPGSQPKTACTNCYCKKCCFHCQVCFITKALGISYGRKKRRQRRRPPQGSQTHQVSLSKQPTSQSRGDPTGPKE
In the case of B1, the “effect on HIV-1 LTR-linked gene expression” value [2] is listed as “specifically activates HIV-1 LTR-linked gene expression”.

Reference: patent US6063612A, “Antiviral reagents based on RNA-binding proteins” (priority 1991, dated 2000)
